Where two headings read alike, the source gives them in different places. Marks after values point to notes of the source that are not given here.
[1] = female dogs, Group 4, 4/4 mg/kg/dose, Day 15
[2] = female dogs, Group 4, 4/4 mg/kg/dose, Day −4
[3] = female dogs, Group 4, 4/4 mg/kg/dose, Day −4 (pre-dose)
[4] = male dogs, Group 4, 4/4 mg/kg/dose, Day 15
[5] = male dogs, Group 4, 4/4 mg/kg/dose, Day −4

CCC1(O)C(=O)OCc2c1cc1n(c2=O)Cc2cc3cc4c(cc3nc2-1)OCO4 (centres unmarked) [FL118]
RET count percentage, max decrease, male (Day 15 vs controls): 30.65% | leukocyte (WBC) counts, max decrease, male (Day 15 vs controls): 14.33% | neutrophils counts (#NEUT), max decrease, male (Day 15 vs controls): 18.67% | reticulocyte (RET) count absolute, max decrease, male (Day 15 vs controls): 33.4% | clinical signs (all treatment groups): abnormal stool | Cl (chloride), % Diff versus vehicle Group 1 (female dogs, Group 2, 2.5/[…], Day 15): 0% | Cl (chloride), % Diff versus vehicle Group 1 (female dogs, Group 2, 2.5/[…], Day −4 (pre-dose)): 0% | Cl (chloride), % Diff versus vehicle Group 1 (female dogs, Group 3, 3.3/[…], Day 15): −1% | Cl (chloride), % Diff versus vehicle Group 1 (female dogs, Group 3, 3.3/[…], Day −4 (pre-dose)): −1% | #EOS (eosinophils, absolute) % Diff vs Group 1 [1]: 6.45% | #LYMP (lymphocytes, absolute) % Diff vs Group 1 [1]: −12.61% | #NEUT % Diff [1]: 32.40% | #RET % Diff [1]: 61.4% | #RET Mean [1]: 60.5 10^9/L | % BASO (basophils, percent) % Diff vs Group 1 [1]: −46.7% | % BASO, basophils, percent, Mean [1]: 0.3% | % EOS (eosinophils, percent) % Diff vs Group 1 [1]: −5.6% | % EOS, eosinophils, percent, Mean [1]: 2.2% | % LYMP (lymphocytes, percent) % Diff vs Group 1 [1]: −21.4% | % LYMP, lymphocytes, percent, Mean [1]: 27.8% | % MONO (monocytes, percent) % Diff vs Group 1 [1]: −18.3% | % MONO, monocytes, percent, Mean [1]: 5.5% | % NEUT % Diff [1]: 17.0% | % NEUT Mean [1]: 63.9% | % RET % Diff [1]: 47.72% | ALB (albumin), % Diff versus vehicle Group 1 [1]: −1.6% | ALP (alkaline phosphatase), % Diff versus vehicle Group 1 [1]: −19% | ALP, alkaline phosphatase, Mean [1]: 110 U/L | ALT (alanine aminotransferase), % Diff versus vehicle Group 1 [1]: 24% | ALT, alanine aminotransferase, Mean [1]: 36 U/L | AST (aspartate aminotransferase), % Diff versus vehicle Group 1 [1]: −7% | AST, aspartate aminotransferase, Mean [1]: 29 U/L | BIL-T, total bilirubin, Mean [1]: 1.60 µmol/L | CK (creatine kinase), % Diff versus vehicle Group 1 [1]: −32% | CK, creatine kinase, Mean [1]: 200 U/L | CRE (creatinine), % Diff versus vehicle Group 1 [1]: 12% | CRE, creatinine, Mean [1]: 54 µmol/L | Ca, calcium, Mean [1]: 2.53 mmol/L | Cl (chloride), % Diff versus vehicle Group 1 [1]: 1% | GGT (gamma-glutamyltransferase), % Diff versus vehicle Group 1 [1]: 0% | GGT (gamma-glutamyltransferase), Mean [1]: 3 U/L | HCT % Diff [1]: 9.2% | HCT Mean [1]: 43.8% | HGB % Diff [1]: 9.5% | HGB Mean [1]: 14.8 g/dL | K (potassium), % Diff versus vehicle Group 1 [1]: −8.3% | MCH Mean [1]: 23.6 pg | MCHC % Diff [1]: −0.1% | MCHC Mean [1]: 33.9 g/dL | MCV % Diff [1]: −1.6% | MCV Mean [1]: 69.6 fL | MPV (mean platelet volume) % Diff vs Group 1 [1]: −6.3% | MPV, mean platelet volume, Mean [1]: 12.3 fL | P (inorganic phosphorus), % Diff versus vehicle Group 1 [1]: −11.74% | PLT (platelet count) % Diff vs Group 1 [1]: −12% | RBC % Diff [1]: 11.06% | RDW % Diff [1]: −2.9% | RDW Mean [1]: 12.5% | TCHO (total cholesterol), % Diff versus vehicle Group 1 [1]: −6.71% | TCHO, total cholesterol, Mean [1]: 3.52 mmol/L | TG (triglyceride), % Diff versus vehicle Group 1 [1]: −27.70% | TP (total protein), % Diff versus vehicle Group 1 [1]: 3.5% | TP, total protein, Mean [1]: 57.5 g/L | UREA (urea), % Diff versus vehicle Group 1 [1]: −3.71% | WBC % Diff [1]: 12.58% | sGLU (glucose), % Diff versus vehicle Group 1 [1]: 7.41% | sGLU, glucose, Mean [1]: 4.59 mmol/L | TG, triglyceride, Mean (female dogs, Group 4, 4/4 mg/kg/dose, Day 15, * p ≤ 0.05): 0.36* mmol/L | #BASO (basophils, absolute) % Diff vs Group 1 [2]: 0.00% | #EOS (eosinophils, absolute) % Diff vs Group 1 [2]: 18.46% | #LYMP (lymphocytes, absolute) % Diff vs Group 1 [2]: −9.70% | #MONO (monocytes, absolute) % Diff vs Group 1 [2]: 6.36% | #NEUT % Diff [2]: 45.57% | #RET % Diff [2]: −2.5% | % BASO (basophils, percent) % Diff vs Group 1 [2]: −25.0% | % BASO, basophils, percent, Mean [2]: 0.2% | % EOS (eosinophils, percent) % Diff vs Group 1 [2]: 4.5% | % EOS, eosinophils, percent, Mean [2]: 2.3% | % LYMP (lymphocytes, percent) % Diff vs Group 1 [2]: −25.5% | % LYMP, lymphocytes, percent, Mean [2]: 24.4% | % MONO (monocytes, percent) % Diff vs Group 1 [2]: −14.4% | % MONO, monocytes, percent, Mean [2]: 6.9% | % NEUT % Diff [2]: 17.0% | % RET Mean [2]: 0.71% | HCT % Diff [2]: 5.4% | HCT Mean [2]: 44.9% | HGB % Diff [2]: 7.3% | HGB Mean [2]: 15.1 g/dL | MCH Mean [2]: 23.4 pg | MCHC % Diff [2]: 1.8% | MCHC Mean [2]: 35.7 g/dL | MCV % Diff [2]: −1.8% | MPV, mean platelet volume, Mean [2]: 11.1 fL | PLT (platelet count) % Diff vs Group 1 [2]: −10% | RDW Mean [2]: 13.1% | WBC % Diff [2]: 23.46% | ALB (albumin), % Diff versus vehicle Group 1 [3]: 1.8% | ALP (alkaline phosphatase), % Diff versus vehicle Group 1 [3]: −19% | ALP, alkaline phosphatase, Mean [3]: 129 U/L | ALT (alanine aminotransferase), % Diff versus vehicle Group 1 [3]: −8% | ALT, alanine aminotransferase, Mean [3]: 25 U/L | AST (aspartate aminotransferase), % Diff versus vehicle Group 1 [3]: −11% | AST, aspartate aminotransferase, Mean [3]: 31 U/L | BIL-T (total bilirubin), % Diff versus vehicle Group 1 [3]: 23.23% | CK (creatine kinase), % Diff versus vehicle Group 1 [3]: −39% | CK, creatine kinase, Mean [3]: 233 U/L | CRE (creatinine), % Diff versus vehicle Group 1 [3]: 11% | CRE, creatinine, Mean [3]: 52 µmol/L | Ca (calcium), % Diff versus vehicle Group 1 [3]: −2.36% | Cl (chloride), % Diff versus vehicle Group 1 [3]: 2% | GGT (gamma-glutamyltransferase), % Diff versus vehicle Group 1 [3]: 0% | GGT (gamma-glutamyltransferase), Mean [3]: 3 U/L | GLB, globulin, Mean [3]: 27.3 g/L | K, potassium, Mean [3]: 4.3 mmol/L | Na (sodium), % Diff versus vehicle Group 1 [3]: 1% | Na, sodium, Mean [3]: 147 mmol/L | P (inorganic phosphorus), % Diff versus vehicle Group 1 [3]: −6.41% | P, inorganic phosphorus, Mean [3]: 1.61 mmol/L | TCHO (total cholesterol), % Diff versus vehicle Group 1 [3]: −6.71% | TCHO, total cholesterol, Mean [3]: 3.66 mmol/L | TG (triglyceride), % Diff versus vehicle Group 1 [3]: −11.26% | TG, triglyceride, Mean [3]: 0.45 mmol/L | TP, total protein, Mean [3]: 57.4 g/L | UREA, urea, Mean [3]: 4.17 mmol/L | sGLU (glucose), % Diff versus vehicle Group 1 [3]: −0.07% | NOAEL (for males): 4.4 mg/kg/dose | Cl (chloride) % Diff vs Group 1 (male dogs, Group 2, 2.5/[…], Day 15): 3% | Cl (chloride) % Diff vs Group 1 (male dogs, Group 2, 2.5/[…], Day −4): 2% | Cl (chloride) % Diff vs Group 1 (male dogs, Group 3, 3.3/[…], Day 15): 2% | Cl (chloride) % Diff vs Group 1 (male dogs, Group 3, 3.3/[…], Day −4): −1% | ALP (alkaline phosphatase) % Diff vs Group 1 [4]: −31% | ALT (alanine aminotransferase) % Diff vs Group 1 [4]: 4% | ALT, alanine aminotransferase, Mean [4]: 29 L⁻¹ | AST (aspartate aminotransferase) % Diff vs Group 1 [4]: −31% | BIL-T (total bilirubin (diasys)) % Diff vs Group 1 [4]: 31.07% | BIL-T (total bilirubin (diasys)) Mean [4]: 1.48 L⁻¹ | CK (creatine kinase) % Diff vs Group 1 [4]: −10% | CK, creatine kinase, Mean [4]: 281 U/L | GGT (gamma-glutamyltransferase), Mean [4]: 3 U/L | GLB, globulin, Mean [4]: 28.3* g/L | K (potassium) % Diff vs Group 1 [4]: −10.3% | K, potassium, Mean [4]: 4.4 mmol/L | Na (sodium) % Diff vs Group 1 [4]: 2% | Na, sodium, Mean [4]: 148 mmol/L | P, inorganic phosphorus, Mean [4]: 1.63 L⁻¹ | TCHO, total cholesterol, Mean [4]: 4.77 mmol/L | TG (triglyceride) % Diff vs Group 1 [4]: −15.79% | UREA (urea) % Diff vs Group 1 [4]: 2.96% | sGLU (glucose) % Diff vs Group 1 [4]: −6.55% | sGLU, glucose, Mean [4]: 4.47 L⁻¹ | ALB, albumin, Mean [5]: 11.0 g/L | ALP (alkaline phosphatase) % Diff vs Group 1 [5]: −5% | ALP, alkaline phosphatase, Mean [5]: 141 L⁻¹ | ALT (alanine aminotransferase) % Diff vs Group 1 [5]: 3% | ALT, alanine aminotransferase, Mean [5]: 25 L⁻¹ | AST (aspartate aminotransferase) % Diff vs Group 1 [5]: −3% | AST, aspartate aminotransferase, Mean [5]: 32 L⁻¹ | BIL-T (total bilirubin (diasys)) Mean [5]: 1.67 L⁻¹ | CK (creatine kinase) % Diff vs Group 1 [5]: 15% | CRE (creatinine) % Diff vs Group 1 [5]: 8% | Cl (chloride) % Diff vs Group 1 [5]: 1% | K (potassium) % Diff vs Group 1 [5]: −2.8% | K, potassium, Mean [5]: 4.7 mmol/L | Na (sodium) % Diff vs Group 1 [5]: 0% | Na, sodium, Mean [5]: 146 mmol/L | P, inorganic phosphorus, Mean [5]: 1.52 L⁻¹ | TCHO (total cholesterol) % Diff vs Group 1 [5]: −2.15% | TCHO, total cholesterol, Mean [5]: 4.85 mmol/L | TG (triglyceride) % Diff vs Group 1 [5]: −8.33% | TG, triglyceride, Mean [5]: 0.40 mmol/L | UREA, urea, Mean [5]: 4.25 L⁻¹ | sGLU, glucose, Mean [5]: 4.11 L⁻¹ | Total Bilirubin (BIL-T), max increase, females (vs control group): 16.14% | Total Bilirubin (BIL-T), max increase, males (vs control group): 47.34% | Triglyceride (TG), max decrease, females (vs control group): 37.84% | Triglyceride (TG), max decrease, males (vs control group): 22.56%
